Measured values taken from patent publication US20240131356A1, “COMBINATION OF INTRACELLULAR AND EXTRACELLULAR PHOTOSENSITIZERS FOR TREATMENT OF BACTERIAL INFECTION” (priority 2021, published 2024).
Entries after “also recorded” stand apart in the source; their conditions may differ. Where two headings read alike, the source gives them in different places.

Legend:
[1] = test system: S. aureus strain Newman wild-type (iron-starved); experiment: In vitro antimicrobial photodynamic therapy light killing assay; assay type: cell-based, Staphylococcus aureus; settings: for Growth inhibition / reduction of CFUs/mL by small molecule plus IR700DX-conjugated anti-IsdA and anti-IsdB mAb mixture: combination with mAb mixture, 63 J/cm^2 690 nm and 50 J/cm^2 395 nm light (FIG. 3A)
Procedure: Iron-chelated bacterial cultures of the indicated strains were prepared. Antibodies of interest were added to 5 mL of iron-chelated TSB at a concentration of 2.5 ug/mL for subculture. These conditions were then separated into four-1 mL aliquots, which was comprised of replicates for both the experimental and control strains. The iron-depleted bacterial strains Newman wildtype and Newman ΔisdABΔspa (40) were then normalized to an OD600 of 1.0 and back diluted 1:100 into each condition from the overnight cultures. These subcultures were then incubated at 37° C. and 180 rpm for 30 minutes, and the bacteria were pelleted via centrifugation for 5 minutes at 16,400 g and 4° C. The pellet was washed twice in 1 mL of cold PBS before being finally resuspended in 1 mL of cold PBS.
During the subculture incubation, a measurement was taken of the power of each light to calculate the time needed to achieve a light dose of 63 J/cm^2 for the 690 nm NIR light (M680L4; Thorlabs) and 50 J/cm^2 for the 395 nm blue-LED (M395L4; Thorlabs) mounted 5 cm above the measurement probe. This measurement was taken using a photodiode and power meter (919P-003-10, 843-R; Newport) with a cutout 3×3 portion of a black 384-well microtiter plate positioned centrally over the measurement probe. The outer wells were covered with aluminum foil to ensure that the measurement taken by the probe was strictly limited to the light that entered the 0.1225 cm^2 area of the well. This approach allowed for the irradiance of the light to be calculated according to (readout (mW)/0.1225 cm^2). This value was then divided into the total light dose for each light and divided by 60 to determine the light dose in minutes. The outputs of the 690 nm and 395 nm LEDs were spatially combined using a long-pass dichroic filter (FF470-Dio; Semrock Inc.) for all experimental conditions where light was present.
The spatial intensity profile of the light output is approximately Gaussian in shape in both directions, so 25 μL of each sample was aliquoted into a 3×3 square on a black 384-well microtiter plate with the center well remaining empty, since it would receive a stronger dose than the surrounding wells. The samples were organized such that the conditions alternated wild-type and knockout in a clockwise fashion, beginning with the lower left corner well. In addition, the center well was centered under the light to equate the radial diminishment of light dose amongst the samples.
To ensure the compounds' efficacy in the full therapeutic regimen and reduce potential unknown variables, each of the compounds was tested with 395 nm or 690 nm wavelengths and with Newman WT or Newman ΔisdAB Δspa. […]

[2] = test system: S. aureus USA300 luxBADCE; experiment: In vivo murine superficial skin (ear) infection model with PDT, bioluminescence imaging; set-up: species or system BALB/cJ mice; settings: for Bacterial growth / luminescence in infected mouse ear compared to untreated animals: '8882 plus conjugated antibodies (i.p. and topical) plus 690 nm and 395 nm light, two-day regimen
Procedure: All mice were maintained in compliance with Vanderbilt's Institutional Animal Care and Use Committee regulations (protocol M1800026). To create a superficial skin wound a similar model of infection was used, as previously described (44), with modifications to relocate the area of infection to the inner epithelial layer of each ear. Eight- to 10-week-old female BALB/cJ mice were used for the S. aureus infections. Twenty-four hours prior to infection the mice were injected intraperitoneally with 20 μg/mL of both STAU-149 (anti-IsdA) and STAU-281 (anti-IsdB) in PBS. Overnight cultures of S. aureus USA300 with a chromosomally-integrated luxBADCE cassette (45) were subcultured 1:50 into TSB containing 1 mM 2,2-dipyridyl. Cultures were grown for 3.5 h to reach exponential phase of growth. Cell pellets were washed twice with ice-cold PBS with the original culture volume, centrifuged, and resuspended in 250 μL of ice-cold PBS. Approximately 5×10^7 log-phase CFUs were inoculated in 5 μL of PBS directly onto the surface of the wound present on each ear, and each mouse was again injected intraperitoneally with antibodies. Mice were placed into new sterile cages in groups of three in accordance with their experimental condition. Four hours post-infection, the mice were visualized using the IVIS spectrum (Perkin Elmer) in vivo bioluminescence imaging system, with data being collected with a 5-minute exposure time. Each mouse was then transferred to a nose cone under continuous isoflurane anesthesia and, 30 minutes prior to light exposure, the ears were exposed to 10 ∥L of the 450 ∥M '8882 and 20 μg/mL mAb cocktail in PBS containing 10% DMSO. Control mice were left untreated. The right ventrodorsal ear of each mouse was exposed to the 395-nm LED for 20.6-23.1 minutes delivering a total energy dose of 50 J/cm^2. […]
The left ventrodorsal ear of each mouse was not exposed to light during treatment. […] Luminescence was quantified for individual ears using ImageJ (FIJI) (46-48). […] Post-treatment images were again collected at 5-minute exposure times using the IVIS system and analyzed using ImageJ (FIJI). […]

[3] = test system: hrtAB promoter (HssRS activation; CgoX activation); experiment: XylE colorimetric reporter assay (phrt.xylE), activation of HssRS / hrtAB expression; assay type: cell-based, Staphylococcus aureus strain Newman; settings: for XylE activity in comparison to '8882 at 10 μM: six-hour exposure (FIG. 2A); for Specifc Activity (nMol/min*mg), data collected at 10 uM: footnote a: data collected at 10 uM
Procedure: (§1) To maximize the production of coproporphyrin III and thereby increase blue-light mediated killing of S. aureus, synthesized analogs of VU0038882 were tested. To determine the relative efficacy of each analog, a Newman strain of S. aureus, transformed with the phrt.xylE (11) reporter vector was used. This reporter allows for colorimetric assessment of intracellular heme production. To perform the assay, each individual analog was added to 3 mL of TSB+10 μg/mL chloramphenicol to reach a concentration of 30 μM, and then 700 μL of this newly made 30 μM solution was added to 1.3 mL of remaining TSB+10 μg/mL chloramphenicol media to create the 10 μM concentration. Either 10 μM or 30 μM concentrations of compounds in medium were then aliquoted into three 0.5 mL replicate tubes. Three separate 16- to 18-hour overnight subcultures from isolated colonies were back-diluted 1:100 into the tubes creating three biological replicates and were subcultured for 6 hours at 37° C. and 180 rpm. After incubation, the cells were pelleted at 16,400 g for 5 minutes and the supernatant aspirated before washing with 0.5 mL of 20 mM potassium phosphate wash buffer. After pelleting the cells again at 16,400 g for 5 minutes the wash buffer was aspirated, and the pellets were stored at −80° C. until further use.
When the cells were ready to be lysed and data collected, samples were removed from the −80° C. freezer, allowed to thaw, and resuspended in 150 μL of lysis buffer (100 mM potassium phosphate pH=8.0, 10% v/v acetone, 20 μg/mL lysostaphin) before incubation in a 37° C. bead bath for 20 minutes and then cooled for 5 minutes on ice. The samples were then centrifuged at 16,400 g and 4° C. for 30 minutes to separate the pellet from the lysate, which was then placed into a 96-well microtiter plate and kept on ice. The lysate from each sample was pipetted into 20 μL aliquots on a round-bottom or flat-bottom 96-well plate on ice. The round bottom plate was labeled for bicinchoninic acid assay (BCA) protein content analysis, and 10 μL of BCA standards was added to extra wells on the plate. Protein quantification was performed using a Pierce BCA Protein Assay Kit as per the manufacturer's instructions. While the BCA plate was in the incubator, the flat-bottom plate was prepared by thawing 1 M catechol on ice and making 100 mM potassium phosphate (pH=8.0) assay buffer. After preparing a kinetic read at 375 nm for 10 minutes with a minimal interval between reads, the catechol was diluted 1:1,000 into the assay buffer and quickly dispensed into a sterile basin, then 200 μL of the solution was pipetted into each well using a multichannel pipette. All data were exported into Excel software (Microsoft) and analyzed for specific activity of each compound and activity relative to VU0038882 controls.
After 219 analogs had been screened, the compounds with the best percent VU0038882 activity were tested again following the same protocol, but with twelve replicates per concentration with data expressed as averages ±the standard deviation (SD). Additionally, the top-performing compounds were tested using the XylE protocol with a concentration gradient to determine their half maximal effective concentration (EC50) values.
Photosensitizer-conjugated antibodies expose bacteria to reactive oxygen species (ROS) externally, but this treatment can be paired with small molecule treatment to generate ROS internally via heme biosynthesis pathway intermediates. To discover new compounds capable of activating CgoX and/or displaying less toxicity to eukaryotic cells, a medicinal chemistry campaign was initatied based on systematic alternation of the '8882 structure. Each new analog was tested for the ability to activate HssRS using the previously described XylE colorimetric assay that employs a reporter construct in which the hrtAB promoter is fused to a xylE reporter gene. […]

[4] = test system: S. aureus; experiment: Toxicity of analogs to bacteria in the XylE cultures; assay type: cell-based, Staphylococcus aureus; settings: target dose of 30 μM
Procedure: as §1
The most consistent activity with non-furan-containing compounds was found with thiophene replacements.

[5] = Staphylococcus aureus, NEWMAN, read-out: logEC50 (converted)

Compound | Decrease of S. aureus viability compared with untreated cells, combined treatment ([1]; '8882 plus IR700DX-conjugated IsdA and IsdB antibodies plus 690 nm and 395 nm light) | Efficacy against S. aureus in PDT, small molecule alone ([1]; alone, with light) | Growth inhibition / reduction of CFUs/mL by small molecule plus IR700DX-conjugated anti-IsdA and anti-IsdB mAb mixture [1] | Growth inhibition / reduction of CFUs/mL by small molecule plus IR700DX-conjugated anti-IsdA and anti-IsdB mAb mixture ([1]; listed as VU0038882) | Bacterial growth / luminescence in infected mouse ear compared to untreated animals [2] | Bacterial growth / luminescence in infected mouse ear compared to untreated animals ([2]; listed as VU00038882) | Bacterial burden in infected mouse ear, antibodies plus '8882 without light ([2]; no light exposure) | Specifc Activity @ 30 μM ([3]; 30 μM compound, 6 h subculture, XylE activity normalized to protein) [nmol/min/mg] | EC50 ([3]; Staphylococcus aureus, NEWMAN) [µM] | EC50 [3, 5] [µM] | XylE activity in comparison to '8882 at 10 μM [3] | logEC50 ([3]; XylE protocol with a concentration gradient, Newman phrt.xylE) | EC50 ([3]; XylE protocol with a concentration gradient, Newman phrt.xylE, read-out: EC50) [µM] | Specifc Activity (nMol/min*mg), data collected at 10 uM ([3]; 6 h subculture) | Toxicity to bacteria (S. aureus) [4]
Oc1c(-c2cc(-c3ccco3)[nH]n2)ccc2ccccc12 [′8882, 2-(5-(Furan-2-yl)-1H-pyrazol-3-yl)naphthalen-1-ol] | 10,000 fold | efficacious against S. aureus | significant growth inhibition of S. aureus | greater reduction of CFUs/mL in vitro than either condition alone | significantly less bacterial growth | significant reduction in bacterial luminescence | a reduction in bacterial burden but did not reach the same extent as the combinatorial treatment | 30.04 ± 10.24 | 10.5 | 10.5 |  |  |  |  | 
2-(5-(5-(Hydroxymethyl)thiophen-2-yl)-1H-pyrazol-3-yl)naphthalen-1-ol [′9952] |  |  |  |  |  |  |  |  |  |  | highest activity at 10 μM observed to date | −5.182 ± 0.065 | 6.58 | 18.10 ± 1.80^a nMol/min*mg | overtly toxic to bacteria; also recorded: exhibiting toxicity to S. aureus
Oc1c(-c2cc(-c3ccoc3)[nH]n2)ccc2ccccc12 [′9133, 2-(5-(Furan-3-yl)-1H-pyrazol-3-yl)naphthalen-1-ol] |  |  |  |  |  |  |  |  | 8.17 | 8.17 | outperformed '8882 |  |  | 8.346 ± 1.304^a nMol/min*mg | overtly toxic to bacteria; also recorded: exhibiting toxicity to S. aureus
